From paper PMC13334477 (RSC Medicinal Chemistry, 2026)
Several values for one entry are separate records, joined by “and”; a condition that tells them apart may be missing. Equal entries are not always repeated.

The molecules below were run on Htel-FT (human telomeric DNA G4) (assay: FRET melting assay, Htel-FT). Conditions: +10µM ds26; ligand 1 μM, DNA 0.2 μM.
Format: binding
Procedure: (§1) Doubly labelled oligonucleotides with fluorescein and TAMRA were purchased lyophilized and RP-cartridge purified from Eurogentec (Kanaka Eurogentec, Seraing, Belgium). FRET melting experiments were run on Stratagene Mx3005P real-time PCR equipment in 96-well plates on the DNA sequences listed Table 1. Experiments were performed in 10 mM lithium cacodylate buffer (pH 7.2) and 10 mM KCl and 90 mM LiCl as previously described.[45,46] The DNA concentration was 0.2 μM. The stabilization (ΔT1/2) induced by compounds was calculated as the difference between the Tm of the nucleic acid alone and that measured with a ligand concentration of 1 μM. Data are presented as averages of three independent measurements, each conducted in duplicate (λexc = 492 nm, λem = 516 nm, T interval = 25–95 °C, ramp: 25 °C for 5 min, then 1 °C min^−1, measurements every 1 °C, 8× magnification of the fluorescence signal). The G4 selectivity of the ligands with respect to the duplex was evaluated by determining the Tm values in the presence of 0, 3 or 10 μM of the duplex competitor ds26.
(§2) In this assay, we performed thermal denaturation experiments by heating and recording the fluorescence of DNA oligonucleotides doubly labelled with fluorescein and TAMRA fluorophores (Fig. 3 and S7). Ligand binding to the G4 stabilises the structure, resulting in an increase in the half-dissociation temperature of the structure (ΔT1/2). As a first approximation, the higher the ΔT1/2 (ΔT1/2 higher), the higher the affinity of the ligand for the target.[45]
(§3) The fluorescently labeled oligonucleotides were dissolved at a concentration of 0.2 μM in 10 mM lithium cacodylate buffer (pH 7.2) with 10 mM KCl and 90 mM LiCl. […] E) Radar plot representation that summarizes the FRET-melting results (ΔT1/2 (°C)) for each ligand in the presence of HIVpro1-FT (green), HIVpro2-FT (grey), LTR4-FT (bleu), and Htel-FT (red). Data are the results of at least three independent experiments in which each data point was performed in duplicate.

| SMILES | ΔT1/2 Htel [°C] |
| --- | --- |
| COc1ccc2c(ccc3c2cc2c4ccc(OC)cc4ccc2[n+]3-c2ccccc2)c1 [DBA1] | 13±0.5 |
| COC(=O)c1ccc(-[n+]2c3ccc4cc(OC)ccc4c3cc3c4ccc(OC)cc4ccc32)cc1 [DBA2] | 12±0.6 |

Same assay, conditions: No ds26; ligand 1 μM, DNA 0.2 μM

| SMILES | ΔT1/2 Htel [°C] |
| --- | --- |
| COc1ccc2c(ccc3c2cc2c4ccc(OC)cc4ccc2[n+]3-c2ccccc2)c1 [DBA1] | 17±0.2 |

What follows are molecules tested on HIV-1 (assay: microbe, parasite or virus in culture). Conditions: Human immunodeficiency virus 1, HeLaP4, read-out: IC50 (infectivity inhibition), native HIV-1, MOI 1, compound added 30 min before infection, 24 h, β-gal reporter.

| SMILES | IC50 [µM] |
| --- | --- |
| COc1ccc2c(ccc3c2cc2c4ccc(OC)cc4ccc2[n+]3-c2ccccc2)c1 [DBA1] | 0.9 |
| COC(=O)c1ccc(-[n+]2c3ccc4cc(OC)ccc4c3cc3c4ccc(OC)cc4ccc32)cc1 [DBA2] | 3.1 |

Each molecule was assayed on LTR4-FT (parallel DNA G4) (assay: FRET melting assay, LTR4-FT). Conditions: +10µM ds26; ligand 1 μM, DNA 0.2 μM.
Format: binding, HIV-1
Procedure: as §1, §2, §3

| SMILES | ΔT1/2 LTR4 [°C] |
| --- | --- |
| COc1ccc2c(ccc3c2cc2c4ccc(OC)cc4ccc2[n+]3-c2ccccc2)c1 [DBA1] | 10±0.5 |
| COC(=O)c1ccc(-[n+]2c3ccc4cc(OC)ccc4c3cc3c4ccc(OC)cc4ccc32)cc1 [DBA2] | 7.3±0.4 |

Same assay, conditions: No ds26; ligand 1 μM, DNA 0.2 μM

| SMILES | ΔT1/2 LTR4 [°C] |
| --- | --- |
| COc1ccc2c(ccc3c2cc2c4ccc(OC)cc4ccc2[n+]3-c2ccccc2)c1 [DBA1] | 11±0.2 |
| COC(=O)c1ccc(-[n+]2c3ccc4cc(OC)ccc4c3cc3c4ccc(OC)cc4ccc32)cc1 [DBA2] | 9.4±0.3 |

Each molecule was assayed against G4T4G4 DNA G4 (antiparallel) (assay: Native ESI-MS, G4T4G4). Conditions: 10 μM DNA, 20 μM ligand, 100 mM ammonium acetate; read-out: Kd1 G4T4G4.
Format: binding
Procedure: (§4) Oligonucleotides were purchased lyophilized and RP-cartridge purified from Eurogentec (Kanaka Eurogentec, Seraing, Belgium), then buffer exchanged with ammonium acetate (5 M; Sigma-Aldrich, Saint-Quentin-Fallavier, France) using Amicon Ultra (3 K cut-off; Merck Millipore, Cork, Ireland). The concentrations of the initial stock solutions of DNA/RNA (∼1 mM) were measured by UV absorbance at 260 nm. Sample solutions were prepared by diluting the appropriate volume of oligonucleotide stock solutions to reach 10 μM of DNA/RNA and 20 μM of ligand, in 100 mM ammonium acetate. The solutions were incubated for 16 h at 4 °C before analysis by mass spectrometry. […] These parameters ensured a good signal intensity without disrupting noncovalent complexes, which was verified using d[G4T4G4]2 as a control. The presented spectra of all DNA/RNA used in this work (Fig. 5, S9 and S10) result from 8 min accumulations. The abundance of each species, M, M + 1L, M + 2L and M + 3L complexes, where M is a monomer oligonucleotide and L is a ligand, was determined from their peak area signals (A), from the sum of the −4, −5 and −6 charge states for DNA and from the sum of the −5, −6 and −7 charge states for RNA, assuming that their response factors are equal. The molar concentrations were then calculated knowing the total amount of oligonucleotide [M]tot: [drawing 1] [drawing 2] [drawing 3] [drawing 4] The concentration of the free ligand, [L]free, was determined from its total concentration [L]tot:[L]free = [L]tot − [M + 1L] − 2[M + 2L] − 3[M + 3L]Apparent consecutive dissociation constants (Kd1, Kd2 and Kd3) were calculated by using the following equations: [drawing 5] [drawing 6] [drawing 7]
(§5) We further analysed the formation of the DBA/G4 complexes by native electrospray ionization mass spectrometry (ESI-MS). We initially attempted to analyze DBA binding to the primary G4 targets from HIV-1 (HIVpro1, HIVpro2, LTR4 and rLTR4 RNA). […] These sequences span the major G4 topological classes and provide a representative assessment of DBA binding across diverse G4 architectures. We also included two DNA duplex controls (DK100 and DK66) to evaluate binding selectivity. This ESI-MS approach enables direct determination of binding stoichiometry, quantification of each species in solution, and calculation of dissociation constants (Kd) from the relative abundances of free and bound forms.[88,97]
(§6) In the ESI-MS conditions, the rLTR4 G4 (10 μM) forms a dimeric structure. […] Among the six DNA and RNA tested here (Fig. 5B, S9 and S10) only rLTR4 presented 1 : 3 G4/DBA complexes. In all cases but one, the 1 : 1 stoichiometry represents the major species in solution while for rLTR4 it is the 1 : 2 (green). […] For TG4T tetramolecular G4 or G4T4G4 bimolecular G4 only 1 : 1 and 1 : 2 complexes were detected (Fig. S9A and S10A). […] The weakest binding was obtained for the G4T4G4 antiparallel G4 and Htel sequence with Kd1s ranging from 11 μM for to 500 μM (Table 2).

| SMILES | Kd [µM] |
| --- | --- |
| COc1ccc2c(ccc3c2cc2c4ccc(OC)cc4ccc2[n+]3-c2ccccc2)c1 [DBA1] | 47.1 |
| COC(=O)c1ccc(-[n+]2c3ccc4cc(OC)ccc4c3cc3c4ccc(OC)cc4ccc32)cc1 [DBA2] | 51.2 |

Same assay, conditions: 10 μM DNA, 20 μM ligand, 100 mM ammonium acetate; read-out: Kd2 G4T4G4

| SMILES | Kd [µM] |
| --- | --- |
| COc1ccc2c(ccc3c2cc2c4ccc(OC)cc4ccc2[n+]3-c2ccccc2)c1 [DBA1] | 38.6 |
| COC(=O)c1ccc(-[n+]2c3ccc4cc(OC)ccc4c3cc3c4ccc(OC)cc4ccc32)cc1 [DBA2] | 33.6 |

The molecules below were run on HIVpro2-FT (hybrid DNA G4) (assay: FRET melting assay, HIVpro2-FT). Conditions: +10µM ds26; ligand 1 μM, DNA 0.2 μM.
Format: binding, HIV-1
Procedure: as §1, §2, §3

| SMILES | ΔT1/2 HIVpro2 [°C] |
| --- | --- |
| COc1ccc2c(ccc3c2cc2c4ccc(OC)cc4ccc2[n+]3-c2ccccc2)c1 [DBA1] | 3.3±0.4 |
| COC(=O)c1ccc(-[n+]2c3ccc4cc(OC)ccc4c3cc3c4ccc(OC)cc4ccc32)cc1 [DBA2] | 2.0±0.4 |

Same assay, conditions: No ds26; ligand 1 μM, DNA 0.2 μM

| SMILES | ΔT1/2 HIVpro2 |
| --- | --- |
| COc1ccc2c(ccc3c2cc2c4ccc(OC)cc4ccc2[n+]3-c2ccccc2)c1 [DBA1] | 4.2±1.4 °C |
| COC(=O)c1ccc(-[n+]2c3ccc4cc(OC)ccc4c3cc3c4ccc(OC)cc4ccc32)cc1 [DBA2] | 2.1±0.2 °C and 2.1 °C |

What follows are molecules tested on DK66 (DNA, duplex) CGCGAATTCGCG (assay: native ESI-MS). Conditions: 100 mM ammonium acetate (NH4+), no K+; apparent; 10 μM DNA, 20 μM ligand, 4 °C incubation; almost no complex detected.

| SMILES | Kd1 [µM] |
| --- | --- |
| COc1ccc2c(ccc3c2cc2c4ccc(OC)cc4ccc2[n+]3-c2ccccc2)c1 [DBA1] | 4833.59 |
| COC(=O)c1ccc(-[n+]2c3ccc4cc(OC)ccc4c3cc3c4ccc(OC)cc4ccc32)cc1 [DBA2] | 711.55 |

What follows are molecules tested against rLTR4 RNA G4 (assay: Native ESI-MS, rLTR4). Conditions: 10 μM RNA, 20 μM ligand, 100 mM ammonium acetate; read-out: Kd1 rLTR4.
Format: binding, HIV-1
Procedure: as §4, §5, §6

| SMILES | Kd [µM] |
| --- | --- |
| COc1ccc2c(ccc3c2cc2c4ccc(OC)cc4ccc2[n+]3-c2ccccc2)c1 [DBA1] | 20.2 |
| COC(=O)c1ccc(-[n+]2c3ccc4cc(OC)ccc4c3cc3c4ccc(OC)cc4ccc32)cc1 [DBA2] | 10.9 |

Same assay, conditions: 10 μM RNA, 20 μM ligand, 100 mM ammonium acetate; read-out: Kd2 rLTR4

| SMILES | Kd [µM] |
| --- | --- |
| COc1ccc2c(ccc3c2cc2c4ccc(OC)cc4ccc2[n+]3-c2ccccc2)c1 [DBA1] | 0.55 |
| COC(=O)c1ccc(-[n+]2c3ccc4cc(OC)ccc4c3cc3c4ccc(OC)cc4ccc32)cc1 [DBA2] | 0.69 |

Same assay, conditions: 10 μM RNA, 20 μM ligand, 100 mM ammonium acetate; read-out: Kd3 rLTR4

| SMILES | Kd [µM] |
| --- | --- |
| COc1ccc2c(ccc3c2cc2c4ccc(OC)cc4ccc2[n+]3-c2ccccc2)c1 [DBA1] | 22.8 |
